According to patent US11873298B2, “Compounds and uses thereof” (JANSSEN PHARMACEUTICA NV, priority 2017, dated 2024):
pIC50: −log10 of the molar value.

Key:
SCD1 = target: T1, SCD1 (Homo sapiens, UniProt O00767); assay: Growth inhibition of humanized yeast strain expressing SCD1 as sole desaturase; assay type: cell-based
T1 construct: host or cells: S. cerevisiae ole1Δ strain (W303 pdr1Δ pdr3Δ background), plasmid pRS316 with TDH3 promoter and CYC1 terminator
T1 sequence (O00767 1-359): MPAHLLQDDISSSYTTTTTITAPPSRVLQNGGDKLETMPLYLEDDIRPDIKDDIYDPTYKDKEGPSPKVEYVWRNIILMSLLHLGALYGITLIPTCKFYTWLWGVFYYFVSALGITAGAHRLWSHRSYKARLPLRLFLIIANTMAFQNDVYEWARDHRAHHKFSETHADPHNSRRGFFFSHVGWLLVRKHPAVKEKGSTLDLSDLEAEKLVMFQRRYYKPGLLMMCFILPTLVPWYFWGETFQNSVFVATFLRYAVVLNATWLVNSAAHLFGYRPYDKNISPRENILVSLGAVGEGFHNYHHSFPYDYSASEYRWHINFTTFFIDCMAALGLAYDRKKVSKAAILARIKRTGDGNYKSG
How it was run: (§1)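 Yeast ole1Δ strain (W303 pdr1Δ pdr3Δ background) carrying plasmid-borne Ole1, SCD1 or SCD5 as sole desaturase was grown in uracil-lacking media, pre-cultured in raffinose for 6 h, then seeded in galactose medium with compound in DMSO. Growth was read as OD600 after 30° C. incubation: 24 h for Ole1, 40 h for SCD1/SCD5.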

SCD5 = target: T2, SCD5 (Homo sapiens, UniProt Q86SK9); assay: Growth inhibition of humanized yeast strain expressing SCD5 as sole desaturase; assay type: cell-based
T2 construct: host or cells: S. cerevisiae ole1Δ strain (W303 pdr1Δ pdr3Δ background), plasmid pRS316 with TDH3 promoter and CYC1 terminator
T2 sequence (Q86SK9 1-330): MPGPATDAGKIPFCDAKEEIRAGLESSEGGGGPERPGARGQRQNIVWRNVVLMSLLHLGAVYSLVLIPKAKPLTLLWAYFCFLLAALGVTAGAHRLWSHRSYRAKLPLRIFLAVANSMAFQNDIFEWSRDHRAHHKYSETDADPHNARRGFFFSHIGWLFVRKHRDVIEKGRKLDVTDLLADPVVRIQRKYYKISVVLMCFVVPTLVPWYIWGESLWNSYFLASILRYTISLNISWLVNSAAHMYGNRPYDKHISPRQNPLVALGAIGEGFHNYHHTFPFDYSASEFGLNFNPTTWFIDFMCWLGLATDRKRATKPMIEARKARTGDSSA
How it was run: as §1

[1] = yeast strain expressing human SCD1 as sole desaturase, Table 8
[2] = yeast strain expressing human SCD5 as sole desaturase, Table 8

| SMILES | pIC50 (SCD1; humanized yeast strain, 40 h) | pIC50 (SCD5; humanized yeast strain, 40 h) | pIC50 (SCD1; [1]) | pIC50 (SCD5; [2]) |
| --- | --- | --- | --- | --- |
| CCC(=O)N1CCC(c2cc(-c3cc4c(cn3)cnn4C3COC3)no2)CC1 [Compound 1147] | < 4.35 | 5.26 |  |  |
| O=C(N1CCN(c2noc(-c3ccnc(NC4COC4)c3)n2)CC1)C1(F)CC1 [Compound 1148] | < 4.35 | 4.71 |  |  |
| CC(C)(C)OC(=O)N1CCC(c2noc(-c3ccc(F)c(N4CCOCC4)c3)n2)CC1 [Compound 1149] | < 4.35 | 8.00 |  |  |
| CC(C)(C)OC(=O)N1CCC(c2noc(-c3ccc(N4CCOCC4)cc3)n2)CC1 [Compound 1150] | < 4.35 | < 4.35 |  |  |
| CC1(OC(=O)N2CCC(c3noc(-c4ccnc(NC5COC5)c4)n3)CC2)CC1 [Compound 1151] | < 4.35 | 5.96 |  |  |
| CC(C)(C)OC(=O)N1CCC(c2noc(-c3cccc(C4CCO4)c3)n2)CC1 (stereo not drawn) [Compound 1152] | < 4.35 | 8.00 |  |  |
| CC(C)C(=O)N1CCC(c2noc(-c3ccnc(NC4COC4)c3)n2)CC1 [Compound 1153] | 5.71 | 6.08 |  |  |
| CC(C)(C)OC(=O)N1CCC(c2noc(-c3cccc(N4CCOCC4)c3F)n2)CC1 [Compound 1154] | < 4.35 | 7.80 |  |  |
| CC(C)C(=O)N1CCC(c2noc(-c3ccnc(N(C)C4COC4)c3)n2)CC1 [Compound 1155] | < 4.35 | < 4.35 |  |  |
| CC(C)(C)OC(=O)N1CCC(c2noc(-c3cc(N4CCOCC4)ccc3F)n2)CC1 [Compound 1156] | < 4.35 | 6.31 |  |  |
| O=C(c1ccccc1F)N1CCC(c2noc(-c3ccnc(NC4COC4)c3)n2)CC1 [Compound 1157] | < 4.35 | < 4.35 |  |  |
| CN(c1cc(-c2nc(C3CCN(C(=O)OC4(C)CC4)CC3)no2)ccn1)C1COC1 [Compound 1158] | < 4.35 | 5.46 |  |  |
| CCC(=O)N1CCC(c2noc(-c3cccc(N4CCOCC4)c3F)n2)CC1 [Compound 1159] | < 4.35 | < 4.35 |  |  |
| CC(C)C(=O)N1CCC(c2noc(-c3cccc(N4CCOCC4)c3F)n2)CC1 [Compound 1160] | < 4.35 | < 4.35 |  |  |
| COC(=O)N1CCC(c2noc(-c3ccc(F)c(N4CCOCC4)c3)n2)CC1 [Compound 1161] | < 4.35 | 7.44 |  |  |
| CC(C)C(=O)N1CCC(c2noc(-c3ccc(F)c(N4CCOCC4)c3)n2)CC1 [Compound 1162] | 4.76 | 7.69 |  |  |
| COC(=O)N1CCC(c2noc(-c3ccc(N4CCOCC4)cc3)n2)CC1 [Compound 1163] | < 4.35 | < 4.35 |  |  |
| CCC(=O)N1CCC(c2noc(-c3ccc(F)c(N4CCOCC4)c3)n2)CC1 [Compound 1164] | < 4.35 | 6.27 |  |  |
| CC(C)C(=O)N1CCC(c2nc(-c3ccc(N4CCOCC4)cc3)no2)CC1 [Compound 1165] | < 4.35 | < 4.35 |  |  |
| CCC(=O)N1CCC(c2noc(-c3ccc(N4CCOCC4)cc3)n2)CC1 [Compound 1166] | < 4.35 | < 4.35 |  |  |
| CC(C)C(=O)N1CCC(c2noc(-c3ccccc3N3CCOCC3)n2)CC1 [Compound 1167] | < 4.35 | < 4.35 |  |  |
| CCC(=O)N1CCC(c2noc(-c3ccccc3N3CCOCC3)n2)CC1 [Compound 1168] | < 4.35 | < 4.35 |  |  |
| COC(=O)N1CCC(c2noc(-c3ccccc3N3CCOCC3)n2)CC1 [Compound 1169] | 4.81 | < 4.35 |  |  |
| CC(C)C(=O)N1CCC(c2noc(-c3ccnc(N4CCC(F)(F)C4)c3)n2)CC1 [Compound 1170] | < 4.35 | 6.40 |  |  |
| CC1(OC(=O)N2CCC(c3noc(-c4ccnc(N5CCC(F)(F)C5)c4)n3)CC2)CC1 [Compound 1171] | 5.94 | 7.51 |  |  |
| CC(C)(C)OC(=O)N1CCC(c2noc(N3CCc4nn(C5COC5)cc4C3)n2)CC1 [Compound 1172] | ≤ 4.35 | 5.00 |  |  |

| SMILES | pIC50 (SCD1; humanized yeast strain, 40 h) | pIC50 (SCD5; humanized yeast strain, 40 h) | pIC50 (SCD1; [1]) | pIC50 (SCD5; [2]) |
| --- | --- | --- | --- | --- |
| CC(C)(C)OC(=O)N1CCC(c2noc(N3CCc4c(cnn4C4COC4)C3)n2)CC1 [Compound 1173] | ≤ 4.35 | 4.63 |  |  |
| CC(C)C(=O)N1CCC(c2noc(-c3cncc(N4CCC(F)(F)C4)c3)n2)CC1 [Compound 1174] | < 4.35 | 4.98 |  |  |
| CC(C)(C(=O)N1CCC(c2noc(-c3ccnc(C4CCOC4)c3)n2)CC1)C(F)(F)F (stereo not drawn) [Compound 1175] | < 4.35 | 6.68 |  |  |
| O=C(N1CCC(c2noc(-c3ccnc(C4CCOC4)c3)n2)CC1)C1(C(F)(F)F)CCC1 (stereo not drawn) [Compound 1176] | < 4.35 | 6.85 |  |  |
| O=C(N1CCC(c2noc(-c3ccnc(C4CCOC4)c3)n2)CC1)C1(C(F)(F)F)CC1 (stereo not drawn) [Compound 1177] | < 4.35 | 6.08 |  |  |
| CC1(C(=O)N2CCC(c3noc(-c4ccnc(C5CCOC5)c4)n3)CC2)CC1 (stereo not drawn) [Compound 1178] | < 4.35 | 6.20 |  |  |
| CC1(C(=O)N2CCC(c3noc(-c4ccnc(C5CCOC5)c4)n3)CC2)CCC1 (stereo not drawn) [Compound 1179] | < 4.35 | 6.96 |  |  |
| O=C(C1CCC1)N1CCC(c2noc(-c3ccnc(C4CCOC4)c3)n2)CC1 (stereo not drawn) [Compound 1180] | < 4.35 | 7.22 |  |  |
| CC(C)(C)OC(=O)N1CCC(c2noc(-c3cncc(N4CCC(F)(F)C4)c3)n2)CC1 [Compound 1181] | < 4.35 | 6.33 |  |  |
| Cn1cc(-c2cc(-c3nc(C4CCN(C(=O)OC(C)(C)C)CC4)no3)ccn2)cn1 [Compound 1182] | 6.08 | 6.14 |  |  |
| Cn1ccc(-c2cc(-c3nc(C4CCN(C(=O)OC(C)(C)C)CC4)no3)ccn2)n1 [Compound 1183] | < 4.35 | < 4.35 |  |  |
| CC(C)C(=O)N1CCC(c2noc(-c3ccnc(-c4ccn(C)n4)c3)n2)CC1 [Compound 1184] | < 4.35 | < 4.35 |  |  |
| Cn1ccc(-c2cc(-c3nc(C4CCN(C(=O)OC5(C)CC5)CC4)no3)ccn2)n1 [Compound 1185] | < 4.35 | < 4.35 |  |  |
| Cn1cc(-c2cc(-c3nc(C4CCN(C(=O)OC5(C)CC5)CC4)no3)ccn2)cn1 [Compound 1186] | 5.00 | 5.22 |  |  |
| CC(C)C(=O)N1CCC(c2noc(-c3ccnc(-c4cnn(C)c4)c3)n2)CC1 [Compound 1187] | < 4.35 | < 4.35 |  |  |
| CC(C)C(=O)N1CCC(c2noc(-c3cccc(C4CCOC4)n3)n2)CC1 (stereo not drawn) [Compound 1188] | < 4.35 | < 4.35 |  |  |
| CC(C)(C)OC(=O)N1CCC(c2noc(-c3cccc(C4CCOC4)n3)n2)CC1 (stereo not drawn) [Compound 1189] | < 4.35 | 5.11 |  |  |
| CC(C)(C)OC(=O)N1CCC(c2noc(-c3cncc(C4CCOC4)c3)n2)CC1 (stereo not drawn) [Compound 1190] | < 4.35 | 7.22 |  |  |
| COC(=O)N1CCC(c2noc(-c3cccc(C4CCO4)c3)n2)CC1 (stereo not drawn) [Compound 1191] | < 4.35 | 5.87 |  |  |
| CC(C)(C)OC(=O)N1CCC(c2noc(-c3cc(C4CCOC4)ccn3)n2)CC1 (stereo not drawn) [Compound 1192] | < 4.35 | 7.40 |  |  |
| CC1(OC(=O)N2CCC(c3noc(N4CCc5c(cnn5C5COC5)C4)n3)CC2)CC1 [Compound 1193] | < 4.35 | < 4.35 |  |  |
| CC(C)C(=O)N1CCC(c2noc(N3CCc4c(cnn4C4COC4)C3)n2)CC1 [Compound 1194] | < 4.35 | < 4.35 |  |  |
| CC(C)C(=O)N1CCC(c2noc(N3CCc4nn(C5COC5)cc4C3)n2)CC1 [Compound 1195] | < 4.35 | < 4.35 |  |  |
| CC(C)(C)OC(=O)N1CCC(c2cc(-c3cnc4cnn(C5CCOC5)c4c3)on2)CC1 (stereo not drawn) [Compound 1233] |  |  | 4.61 | 5.18 |
| COC(=O)N1CCC(c2noc(-c3ccnc(-c4cnn(C)c4)c3)n2)CC1 [Compound 1265] |  |  | 4.87 | 4.96 |
